In this assay the target is CD137 (Homo sapiens, UniProt Q07011). The assay is described as follows: CD137 reporter assay (Promega CD137 luciferase reporter, Jurkat cells) in co-culture with Nectin-4-expressing tumor cells. On the set-up: host or cells: Jurkat reporter cells. Format: cell-based. Conditions: co-culture with HT1376, Table 2A. Background: Reporter assays use an easily measured gene product as a stand-in for the process of interest.

The structures appear in SMILES notation.

For orientation: EC50 means the concentration at which the effect is half-maximal. The low end stands for an effect from little substance, the high end for a need for much substance.

Chain of CD137 (Q07011 24-255): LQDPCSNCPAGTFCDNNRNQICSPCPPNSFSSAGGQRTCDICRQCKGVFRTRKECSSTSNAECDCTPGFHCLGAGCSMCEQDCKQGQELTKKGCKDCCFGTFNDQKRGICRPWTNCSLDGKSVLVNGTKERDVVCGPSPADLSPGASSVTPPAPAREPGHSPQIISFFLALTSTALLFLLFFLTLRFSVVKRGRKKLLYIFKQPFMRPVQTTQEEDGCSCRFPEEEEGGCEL

`CCCC[C@@H]1NC(=O)[C@H](Cc2ccc(O)cc2)NC(=O)[C@@H]2CCCN2C(=O)[C@H](CCC(=O)O)NC(=O)[C@H](C)NC(=O)[C@H](Cc2ccccc2)NC(=O)[C@@H]2CSCCC(=O)N3CN(CN(C3)C(=O)CCSC[C@H](NC(C)=O)C(=O)N[C@@H](CC(C)(C)C)C(=O)N3CCC[C@H]3C(=O)N[C@@H](CCC(=O)O)C(=O)N[C@H](CCCCNC(=O)CCc3cn(CCOCCOCCOCCN(CCOCCOCCOCCC(=O)N[C@H]4CSCCC(=O)N5CN6CN(C5)C(=O)CCSC[C@H](NC(=O)[C@@H](CC(=O)O)NC(=O)[C@H](Cc5cccc7ccccc57)NC(=O)[C@@H]5CCCN5C4=O)C(=O)N[C@@H](CCSC)C(=O)N[C@@H](CCCCNC(=N)N)C(=O)N[C@@H](CC(=O)O)C(=O)N[C@@H](Cc4c[nH]c5ccccc45)C(=O)N[C@@H](CO)C(=O)N[C@@H]([C@@H](C)O)C(=O)N4CCC[C@H]4C(=O)N4C[C@H](O)C[C@H]4C(=O)N[C@@H](Cc4c[nH]c5ccccc45)C(=O)N[C@H](C(N)=O)CSCCC6=O)CCOCCOCCOCCn4cc(CCC(=O)NCCCC[C@H]5NC(=O)[C@H](CCC(=O)O)NC(=O)[C@@H]6CCCN6C(=O)[C@H](CC(C)(C)C)NC(=O)[C@@H](NC(C)=O)CSCCC(=O)N6CN7CN(C6)C(=O)CCSC[C@H](NC(=O)[C@H](Cc6ccc(O)cc6)NC(=O)[C@@H]6CCCN6C5=O)C(=O)N[C@@H](Cc5ccccc5)C(=O)N[C@@H](C)C(=O)N[C@@H](CCC(=O)O)C(=O)N5CCC[C@H]5C(=O)N[C@@H](Cc5ccc(O)cc5)C(=O)N[C@@H](CCCC)C(=O)N[C@H](C(N)=O)CSCCC7=O)nn4)nn3)C(=O)N3CCC[C@H]3C(=O)N[C@@H](Cc3ccc(O)cc3)C(=O)N2)C(=O)CCSC[C@@H](C(N)=O)NC1=O` [BCY12487]: the Emax was 12 fold induction over background.
Take `CCCC[C@@H]1NC(=O)[C@H](Cc2ccc(O)cc2)NC(=O)[C@@H]2CCCN2C(=O)[C@H](CC(=O)O)NC(=O)[C@H](C)NC(=O)[C@H](Cc2ccccc2)NC(=O)[C@@H]2CSCCC(=O)N3CN(CN(C3)C(=O)CCSC[C@@H](C(=O)N[C@@H](C)C(N)=O)NC1=O)C(=O)CCSC[C@H](NC(C)=O)C(=O)N[C@@H](CC(C)(C)C)C(=O)N1CCC[C@H]1C(=O)N[C@@H](CCC(=O)O)C(=O)N[C@H](CCCCNC(=O)CCc1cn(CCOCCOCCOCCN(CCOCCOCCOCCC(=O)NCCCC[C@H]3NC(=O)[C@H](Cc4cccc5ccccc45)NC(=O)[C@@H]4CCCN4C(=O)[C@@H](NC(C)=O)CSCCC(=O)N4CN5CN(C4)C(=O)CCSC[C@H](NC3=O)C(=O)N[C@@H](CCSC)C(=O)N[C@@H](CCCCNC(=N)N)C(=O)N[C@@H](CC(=O)O)C(=O)N[C@@H](Cc3c[nH]c4ccccc34)C(=O)N[C@@H](CO)C(=O)N[C@@H]([C@@H](C)O)C(=O)N3CCC[C@H]3C(=O)N3C[C@H](O)C[C@H]3C(=O)N[C@@H](Cc3c[nH]c4ccccc34)C(=O)N[C@H](C(N)=O)CSCCC5=O)CCOCCOCCOCCn3cc(CCC(=O)NCCCC[C@H]4NC(=O)[C@H](CCC(=O)O)NC(=O)[C@@H]5CCCN5C(=O)[C@H](CC(C)(C)C)NC(=O)[C@@H](NC(C)=O)CSCCC(=O)N5CN6CN(C5)C(=O)CCSC[C@H](NC(=O)[C@H](Cc5ccc(O)cc5)NC(=O)[C@@H]5CCCN5C4=O)C(=O)N[C@@H](Cc4ccccc4)C(=O)N[C@@H](C)C(=O)N[C@@H](CC(=O)O)C(=O)N4CCC[C@H]4C(=O)N[C@@H](Cc4ccc(O)cc4)C(=O)N[C@@H](CCCC)C(=O)N[C@H](C(=O)N[C@@H](C)C(N)=O)CSCCC6=O)nn3)nn1)C(=O)N1CCC[C@H]1C(=O)N[C@@H](Cc1ccc(O)cc1)C(=O)N2` [BCY12490]: the 50% effective concentration (EC50) (EC50 (nM)) was determined as 0.23 nM.

Source of the values: US20230129258A1, “HETEROTANDEM BICYCLIC PEPTIDE COMPLEXES” (BicycleTx Limited, priority 2019, published 2023).
